Results from ChEMBL document CHEMBL1152904, “Synthesis and characterization of a BODIPY-labeled derivative of Soraphen A that binds to acetyl-CoA carboxylase” (Bioorg Med Chem Lett, 2009).

Target: Acetyl-CoA carboxylase 2 (Homo sapiens, UniProt O00763)
Test: Binding affinity to human His-tagged acetyl-CoA-carboxylase biotin carboxylase domain
Details: read-out: Kd(app)

Sequence of Acetyl-CoA carboxylase 2 (O00763 whole entry, the tested form may be a part): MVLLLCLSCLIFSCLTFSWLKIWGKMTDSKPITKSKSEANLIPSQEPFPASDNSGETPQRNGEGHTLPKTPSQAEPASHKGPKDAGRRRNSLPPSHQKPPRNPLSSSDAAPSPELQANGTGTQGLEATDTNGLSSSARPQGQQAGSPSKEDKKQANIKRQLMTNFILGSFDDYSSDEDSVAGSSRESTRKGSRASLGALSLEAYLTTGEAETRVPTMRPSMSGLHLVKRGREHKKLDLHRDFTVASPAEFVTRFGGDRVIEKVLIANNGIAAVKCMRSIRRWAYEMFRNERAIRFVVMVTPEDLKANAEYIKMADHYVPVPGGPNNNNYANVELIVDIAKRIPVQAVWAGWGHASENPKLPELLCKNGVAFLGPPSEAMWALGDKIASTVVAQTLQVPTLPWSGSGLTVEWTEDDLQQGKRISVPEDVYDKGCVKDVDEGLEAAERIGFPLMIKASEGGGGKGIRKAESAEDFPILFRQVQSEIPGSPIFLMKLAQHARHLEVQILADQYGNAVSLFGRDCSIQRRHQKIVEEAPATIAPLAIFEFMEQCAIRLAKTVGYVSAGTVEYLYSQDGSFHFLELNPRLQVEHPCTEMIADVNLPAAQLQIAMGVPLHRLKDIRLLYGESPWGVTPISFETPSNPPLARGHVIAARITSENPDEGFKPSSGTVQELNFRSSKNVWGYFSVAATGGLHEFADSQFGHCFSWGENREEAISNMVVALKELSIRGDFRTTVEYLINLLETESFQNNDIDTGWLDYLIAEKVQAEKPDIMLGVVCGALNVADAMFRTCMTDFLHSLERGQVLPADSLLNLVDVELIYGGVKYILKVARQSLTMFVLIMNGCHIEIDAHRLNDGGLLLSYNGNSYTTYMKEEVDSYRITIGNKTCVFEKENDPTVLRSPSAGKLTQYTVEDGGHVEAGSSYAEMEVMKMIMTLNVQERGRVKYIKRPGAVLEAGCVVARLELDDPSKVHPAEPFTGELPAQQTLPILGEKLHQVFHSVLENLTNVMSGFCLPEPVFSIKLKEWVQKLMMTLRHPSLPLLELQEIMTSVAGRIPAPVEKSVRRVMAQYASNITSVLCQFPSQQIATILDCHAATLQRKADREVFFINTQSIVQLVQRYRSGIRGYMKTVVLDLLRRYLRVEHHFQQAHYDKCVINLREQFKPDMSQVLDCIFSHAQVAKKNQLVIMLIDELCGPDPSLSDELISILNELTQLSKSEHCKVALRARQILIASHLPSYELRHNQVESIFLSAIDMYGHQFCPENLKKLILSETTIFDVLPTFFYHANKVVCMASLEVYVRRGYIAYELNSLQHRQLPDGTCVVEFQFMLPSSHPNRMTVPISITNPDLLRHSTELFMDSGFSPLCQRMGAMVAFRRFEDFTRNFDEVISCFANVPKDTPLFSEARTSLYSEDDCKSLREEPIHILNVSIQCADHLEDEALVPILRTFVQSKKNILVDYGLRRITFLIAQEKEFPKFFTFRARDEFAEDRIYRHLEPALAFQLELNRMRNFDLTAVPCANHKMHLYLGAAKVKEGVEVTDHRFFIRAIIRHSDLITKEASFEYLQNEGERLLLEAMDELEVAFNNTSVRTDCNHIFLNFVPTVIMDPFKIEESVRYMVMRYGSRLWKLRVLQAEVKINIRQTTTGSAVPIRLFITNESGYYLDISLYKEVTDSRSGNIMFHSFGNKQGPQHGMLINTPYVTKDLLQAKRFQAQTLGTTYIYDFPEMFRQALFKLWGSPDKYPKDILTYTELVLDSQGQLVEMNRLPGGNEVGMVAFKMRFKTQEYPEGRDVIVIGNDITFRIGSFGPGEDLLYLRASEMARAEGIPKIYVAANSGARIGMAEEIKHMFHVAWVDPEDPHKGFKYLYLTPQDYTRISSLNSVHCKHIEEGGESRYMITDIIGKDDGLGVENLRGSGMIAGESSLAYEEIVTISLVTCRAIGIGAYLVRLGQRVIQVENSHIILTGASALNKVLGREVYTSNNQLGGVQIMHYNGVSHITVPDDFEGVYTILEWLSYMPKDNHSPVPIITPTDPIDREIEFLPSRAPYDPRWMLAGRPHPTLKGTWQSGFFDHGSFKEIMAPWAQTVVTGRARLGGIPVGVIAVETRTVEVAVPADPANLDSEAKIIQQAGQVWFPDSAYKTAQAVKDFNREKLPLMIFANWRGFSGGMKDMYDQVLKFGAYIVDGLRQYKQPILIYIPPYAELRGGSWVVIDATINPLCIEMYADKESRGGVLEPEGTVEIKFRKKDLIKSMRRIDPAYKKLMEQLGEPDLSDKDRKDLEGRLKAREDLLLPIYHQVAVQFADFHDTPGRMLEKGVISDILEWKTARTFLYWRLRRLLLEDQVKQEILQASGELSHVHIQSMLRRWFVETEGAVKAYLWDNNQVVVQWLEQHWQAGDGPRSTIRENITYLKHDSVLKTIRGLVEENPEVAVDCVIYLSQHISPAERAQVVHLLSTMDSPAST

CO[C@H]1CCCC[C@@H](c2ccccc2)OC(=O)[C@@H](C)[C@@]2(O)O[C@H]([C@@H](C)[C@H](O)[C@H]2OC)[C@@H](C)/C=C/[C@H]1OC(=O)CCC1=[N+]2C(=Cc3c(C)cc(C)n3[B-]2(F)F)C=C1
Kd: 3 nM
